Experimental data as given in patent US5437982A, “Methods of identifying specific inactivation gate inhibitors of the sodium channel” (University of Washington, priority 1993, dated 1995).
“Also recorded” adds a separate entry of the source. Where a SMILES comes first, the peptide text is derived from it.

Tests used:
Assay type in all cases: cell-based
[1] = target: sodium channel in CNaIIA cells (Rattus norvegicus, UniProt P04775); assay: Blocking of the sodium channel in CNaIIA cells by IFM-amide during repetitive stimulation; settings: for dependence of inhibition of sodium channels / sodium channel blocking: repetitive stimulation; for sodium channel blocking: FIGS. 7 and 8
Sequence of sodium channel in CNaIIA cells (P04775 whole entry): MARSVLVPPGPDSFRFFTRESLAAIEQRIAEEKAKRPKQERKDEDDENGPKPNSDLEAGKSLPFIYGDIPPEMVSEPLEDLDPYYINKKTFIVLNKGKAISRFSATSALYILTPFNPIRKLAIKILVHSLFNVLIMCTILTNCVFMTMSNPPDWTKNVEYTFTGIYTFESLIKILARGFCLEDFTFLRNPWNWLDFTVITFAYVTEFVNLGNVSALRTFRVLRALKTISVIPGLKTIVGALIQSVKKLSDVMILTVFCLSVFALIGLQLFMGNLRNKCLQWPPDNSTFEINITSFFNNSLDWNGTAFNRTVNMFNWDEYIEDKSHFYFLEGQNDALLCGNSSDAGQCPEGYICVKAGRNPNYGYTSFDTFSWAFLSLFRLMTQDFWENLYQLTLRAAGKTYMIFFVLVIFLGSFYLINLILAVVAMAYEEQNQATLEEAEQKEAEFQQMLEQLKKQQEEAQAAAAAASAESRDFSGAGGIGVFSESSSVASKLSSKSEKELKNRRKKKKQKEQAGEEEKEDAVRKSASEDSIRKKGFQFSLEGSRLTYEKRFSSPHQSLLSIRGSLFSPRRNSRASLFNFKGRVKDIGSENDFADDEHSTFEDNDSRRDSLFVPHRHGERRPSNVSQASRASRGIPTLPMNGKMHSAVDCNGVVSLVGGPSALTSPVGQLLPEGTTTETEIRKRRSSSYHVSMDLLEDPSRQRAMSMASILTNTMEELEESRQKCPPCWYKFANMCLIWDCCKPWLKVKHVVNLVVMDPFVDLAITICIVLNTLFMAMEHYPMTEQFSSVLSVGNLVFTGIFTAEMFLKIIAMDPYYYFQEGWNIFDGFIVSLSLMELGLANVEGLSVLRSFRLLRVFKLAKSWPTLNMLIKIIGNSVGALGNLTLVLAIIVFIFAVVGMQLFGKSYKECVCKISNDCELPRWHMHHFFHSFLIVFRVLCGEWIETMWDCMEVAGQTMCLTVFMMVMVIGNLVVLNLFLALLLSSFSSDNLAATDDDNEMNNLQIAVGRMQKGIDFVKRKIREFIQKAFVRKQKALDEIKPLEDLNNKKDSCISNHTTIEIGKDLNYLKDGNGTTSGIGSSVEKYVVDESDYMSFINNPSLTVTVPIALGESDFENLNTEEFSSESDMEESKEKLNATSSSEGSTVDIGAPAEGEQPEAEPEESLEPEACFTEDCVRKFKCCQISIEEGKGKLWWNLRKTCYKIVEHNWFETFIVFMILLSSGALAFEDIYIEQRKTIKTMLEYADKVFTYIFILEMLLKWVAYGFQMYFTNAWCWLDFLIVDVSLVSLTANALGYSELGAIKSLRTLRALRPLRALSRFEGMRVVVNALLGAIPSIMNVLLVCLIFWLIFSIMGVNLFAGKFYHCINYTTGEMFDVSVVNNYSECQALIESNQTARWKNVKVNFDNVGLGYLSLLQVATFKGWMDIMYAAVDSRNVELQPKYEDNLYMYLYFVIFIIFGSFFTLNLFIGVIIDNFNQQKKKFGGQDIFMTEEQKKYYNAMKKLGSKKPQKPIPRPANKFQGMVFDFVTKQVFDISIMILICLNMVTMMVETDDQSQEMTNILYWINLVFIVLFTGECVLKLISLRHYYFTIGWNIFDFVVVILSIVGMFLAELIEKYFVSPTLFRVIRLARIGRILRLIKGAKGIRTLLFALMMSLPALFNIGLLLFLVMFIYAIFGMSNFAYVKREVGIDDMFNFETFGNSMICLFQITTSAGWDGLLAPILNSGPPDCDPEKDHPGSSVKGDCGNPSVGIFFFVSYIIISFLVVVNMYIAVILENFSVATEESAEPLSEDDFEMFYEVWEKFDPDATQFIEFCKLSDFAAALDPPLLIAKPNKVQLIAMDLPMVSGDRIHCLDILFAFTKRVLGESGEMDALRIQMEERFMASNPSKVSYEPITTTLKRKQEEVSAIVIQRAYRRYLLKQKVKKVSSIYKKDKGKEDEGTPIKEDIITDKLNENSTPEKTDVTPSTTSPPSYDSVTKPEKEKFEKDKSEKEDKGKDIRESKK
Text: It was reasoned that a tripeptide IFM-amide could be an effective inactivation gate peptide since it contains both the critical IFM residues and the charge of the unblocked α-amino group in the isoleucine residue. […] During repetitive stimulation, increased inhibition is observed with each succeeding pulse (pulse #) until a steady state is reached (FIG. 7). The degree of inhibition at steady state is dependent on the frequency of the stimulation pulses (% Ipulse #1; FIG. 7) and on the voltage of the stimulating pulses (FIG. 8). […] This implies that IFM amide has greater intrinsic affinity for the receptor site that blocks the sodium channel.

Na+ channels = assay: Structural specificity: ability of peptides to block sodium channels and restore fast inactivation; settings: qualitative summary; methods similar to Examples 1-4
Text: The results of these experiments are summarized qualitatively below.

[2] = target: scorpion-toxin modified wild-type sodium channels (Rattus norvegicus, UniProt P04775); assay: Inactivation in scorpion-toxin modified wild-type sodium channels in CNaIIA-1 cells; settings: 100 nM LqTx in bath; test voltage to 0 mV; FIG. 6
Sequence of scorpion-toxin modified wild-type sodium channels (P04775 whole entry): as above
Text: Externally applied alpha-scorpion toxins slow sodium channel inactivation without affecting activation (reviewed in 26). Sodium currents in stably transfected CNaIIA-1 cells respond to a depolarizing test voltage to 0 mV with rapid activation and inactivation of the sodium channel. […] KIQMK, on the other hand, had no effect (FIG. 6).

[3] = target: Wild-type IIA sodium channels (Rattus norvegicus, UniProt P04775); assay: Competition with the normal inactivation process: tail currents by whole-cell voltage clamp; settings: cell perfused with peptide; for macroscopic sodium current elicited by depolarizing test pulse to 0 mV: versus controls; for tail currents elicited by repolarization pulse: from 0 to -80 mV, FIG. 5
Sequence of Wild-type IIA sodium channels (P04775 whole entry, the tested form may be a part): as the sequence (P04775 whole entry) above
Text: Considering binding of KIFMK inactivation gate peptide to putative inactivation gate receptor site(s) in the intracellular mouth of the sodium channel, peptide binding might prevent channel closure by the natural inactivation gate due to steric hindrance. In this model, closure of the inactivation gate would be prevented by the drug and after depolarization-induced opening, repolarization should cause the peptide to dissociate from the channel, leaving the channel open for a "brief period" of time before closure and inactivation can block the channel. The existence of the "brief period" of channel opening was captured and recorded as a rising component of tail current in the following experiments.
Wild-type IIA sodium channels were recorded using a whole-cell voltage clamp method. Under the recording conditions used, the sodium channels have tail currents upon rapid repolarization that declined exponentially without a rising phase because the channel rapidly closes upon repolarization (FIG. 5A). The magnitude of the tail currents decreases as the duration of the test pulse is increased. Repetitive pulsing created a family of tail current recordings that decreased exponentially (from a starting level near that of the sodium current), without any rising component in the recorded curves (FIG. 5A). […] The amplitude of the rising component of the latter tail currents decreased with increasing pulse duration as the macroscopic sodium current decreased.

[4] = test system: mutant F1489Q sodium channels; assay: Restoration of inactivation in mutant sodium channels transiently expressed in TSQ-201 cells; settings: for inactivation of mutant (F1489Q) sodium channels: peptide perfused at 1 mM into TSQ-201 cells, FIG. 4
Procedure: (§1) Experiments were performed on wild-type Type IIA sodium channels stably transfected into Chinese hamster ovary (CHO) cells (CNalIA-1; as described in citation 23, which is incorporated herein by reference) and mutant (F1489Q) sodium channels transiently transfected into human kidney carcinoma cells (as described in citations 24 and 25, which are incorporated herein by reference).
Mutant F1489Q sodium channels were transiently expressed in TSQ-201 cells (24). The mutant channels in the cells activated normally but inactivated very slowly. […] The time course of inactivation for the mutant channels was dramatically slowed over the entire voltage range. Having established the properties of the test cells and mutant channels, the peptides KIFMK and KIQMK were next tested. KIFMK or KIQMK were perfused (at a concentration of 1 mM) into the TSQ-201 cells expressing the mutant (F1489Q) sodium channels.

[5] = target: wild-type Type IIA sodium channels (Rattus norvegicus, UniProt P04775); assay: Voltage- and frequency-dependent block of sodium channels, sodium currents recorded in CNaIIA-1 cells; settings: for block of rapidly cycling type IIA sodium channels over the entire voltage range: 10 Hz voltage pulses, -50 to +100 mV
Sequence of wild-type Type IIA sodium channels (P04775 whole entry): as above
Procedure: as §1
The effects of the KIFMK gate peptide on sodium channels was tested by backfilling an electrode with a recording solution containing 1 mM peptide after loading the tip of the electrode with a buffer of peptide-free solution (i.e., to enhance seal formation when the electrode was inserted into a cell). After forming a high-resistance seal and breaking through the cell membrane, the peptide rapidly diffused into the cell and caused the appearance of tail currents (see below) within 10 minutes. When stabilized, sodium currents were recorded in the cells before and after a series of 10 Hz voltage pulses that varied over the range -50 to +100 mV. Parallel control experiments were conducted in which electrodes were not backfilled with peptides. The magnitude of the sodium currents in the experimental and control preparations were compared.
As a control, a KIQMK peptide was prepared to mimic the sequence present in mutant F 1489Q sodium channels.

With `CC[C@H](C)[C@H](N)C(=O)N[C@@H](Cc1ccccc1)C(=O)N[C@@H](CCSC)C(N)=O` [IFM-amide] (H-Ile-Phe-Met-NH2) the “membrane potentials at which block is effective, compared with KIFMK” value ([1]; compare FIGS. 3 and 8) was “effective sodium channel blocker at much more negative membrane potentials than KIFMK”, the “blocking activity compared with IFM free acid or acetyl IFM free acid” value ([1]; experiments like those in Example 6) was “increased blocking activity” and the “dependence of inhibition of sodium channels” value [1] was “voltage-sensitive blocking”. For the same compound, the sodium channel blocking [1] was “blocking of the sodium channel”, the sodium channel blocking ([1]; listed as IFM amide) was “very effective sodium channel blocker” and the “dependence of inhibition of sodium channels” value ([1]; listed as IFM amide) was “voltage- and frequency-dependent”.
Ac-DIFMT-NH2 [acetyl-DIFMT-amide] was tested, and the “Inhibition of Na+ channels” value (Na+ channels) was “ineffective”.
In the case of `CC[C@H](C)[C@H](NC(=O)[C@H](CCCCN)NC(C)=O)C(=O)N[C@@H](Cc1ccccc1)C(=O)N[C@@H](CCSC)C(=O)N[C@@H](CCCCN)C(N)=O` [KIFMK, acetyl-KIFMK-amide], the “initial rate of sodium channel inactivation in presence of α-scorpion toxin” value [2] is reported as “significantly accelerated; also recorded: partially restore inactivation activity”, the “macroscopic sodium current elicited by depolarizing test pulse to 0 mV” value [3] is reported as “decayed with a time course faster than that of controls” and the “tail currents elicited by repolarization pulse” value [3] is reported as “rose to a peak and then decayed much more slowly than in controls; also recorded: significant tail currents”. The “time to steady-state level of inhibition” value ([4]; 1 mM peptide) was “less than 2 ms”, the “course and extent of induced inactivation” value ([4]; 1 mM, compared with wild-type channel function) was “rapid but incomplete” and the “inactivation of mutant (F1489Q) sodium channels” value [4] was “restore inactivation; also recorded: successfully inactivated”. The “time to appearance of tail currents after peptide diffusion into the cell” value ([5]; 1 mM peptide in backfilled electrode) was ≤ 10 min, the “reduction (inhibition) of sodium currents in response to frequent depolarizing pulses” value ([5]; 1 mM peptide in electrode, 10 Hz pulses, after 15 min perfusion/cycling) was “substantial level of inhibition; also recorded: substantially reduced” and the “channel block by 10 Hz pulses given at 100 mV” value ([5]; 1 mM peptide, FIG. 3) was “completely blocked”. For the same compound, the “reduction in sodium current when cell membranes not depolarized frequently” value ([5]; 1 mM peptide, closed channels) was “Little reduction”, the “blockage of currents generated in response to 10 Hz pulses at positive voltages” value ([5]; 1 mM peptide, greater than 0 mV) was “substantial” and the “block of rapidly cycling type IIA sodium channels over the entire voltage range” value ([5]; FIG. 3) was “inhibited”. For the same compound, the “inhibition of sodium currents within 4 minutes of cycling” value ([5]; FIG. 2A, relative to control recording without peptide) was “insignificant level of inhibition” and the “character of the inhibitory effect on the sodium channel” value ([5]; combined results of Example 1) was “strong and voltage- and frequency-dependent”.
For “Ac-KIQMK-NH2 [KIQMK, acetyl-KIQMK-amide, reference compound]”, the “initial rate of sodium channel inactivation in presence of α-scorpion toxin” value [2] was “no effect”, the “macroscopic sodium current elicited by depolarizing test pulse to 0 mV” value [3] was “no significant effect” and the “tail currents elicited by repolarization pulse” value [3] was “no significant effect; also recorded: no significant gating currents”. For the same compound, the “inactivation of mutant (F1489Q) sodium channels” value [4] was “without effect; also recorded: did not” and the “block of rapidly cycling type IIA sodium channels over the entire voltage range” value ([5]; FIG. 3) was “inactive; also recorded: did not block”.
